Reference: patent US6878716B1, “Compounds specific to adenosine A1 receptor and uses thereof” (OSI Pharmaceuticals, Inc., priority 1998, dated 2005)
Read-outs that look alike come from different tables or passages of the source.

What was measured:
A1 adenosine receptor = biological target: T1, A1 adenosine receptor (Homo sapiens, UniProt P30542); conditions: reported value; cited from earlier work
T1 sequence (P30542 1-326): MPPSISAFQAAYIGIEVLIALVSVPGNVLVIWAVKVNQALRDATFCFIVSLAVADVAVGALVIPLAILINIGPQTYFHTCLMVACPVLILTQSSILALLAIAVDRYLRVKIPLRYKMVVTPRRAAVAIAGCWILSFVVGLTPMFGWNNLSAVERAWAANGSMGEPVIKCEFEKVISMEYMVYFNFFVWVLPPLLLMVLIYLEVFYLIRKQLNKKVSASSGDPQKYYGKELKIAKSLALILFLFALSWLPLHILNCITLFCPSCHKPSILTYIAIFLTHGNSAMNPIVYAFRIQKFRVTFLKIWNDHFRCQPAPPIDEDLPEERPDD

[1] = biological target: T2, human adenosine A1 receptor (Homo sapiens, UniProt P30542); assay: Yeast β-Galactosidase reporter gene assay, inhibition of NECA-induced activity (strain CY12660)
T2 sequence (P30542 1-326): T1 sequence (P30542 1-326)

[2] = biological target: T3, human A1 receptor subtype (Homo sapiens, UniProt P30542); assay: biochemical
T3 sequence (P30542 1-326): T1 sequence (P30542 1-326)

[3] = biological target: T4, human A2a receptor subtype (Homo sapiens, UniProt P29274); assay: Adenosine 2a receptor subtype competition radioligand binding ([3H]CGS-21680, HEK293 membranes); conditions: Table 13, % value; footnote 8: % activity @ 10 μM
T4 construct: expressed in transfected cells; host or cells: HEK-293 (Cadus clone # 5)
T4 sequence (P29274 whole entry): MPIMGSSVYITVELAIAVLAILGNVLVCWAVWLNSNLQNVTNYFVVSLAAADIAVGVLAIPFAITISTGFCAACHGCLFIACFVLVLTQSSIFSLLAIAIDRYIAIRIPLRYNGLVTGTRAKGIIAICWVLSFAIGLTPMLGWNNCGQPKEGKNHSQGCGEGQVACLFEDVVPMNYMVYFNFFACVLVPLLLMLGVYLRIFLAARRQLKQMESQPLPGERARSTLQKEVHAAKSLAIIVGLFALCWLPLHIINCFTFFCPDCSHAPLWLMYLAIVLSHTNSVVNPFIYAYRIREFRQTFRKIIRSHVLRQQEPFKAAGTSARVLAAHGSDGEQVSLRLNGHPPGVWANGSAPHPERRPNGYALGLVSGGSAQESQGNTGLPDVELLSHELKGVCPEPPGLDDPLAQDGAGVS

[4] = biological target: T3, human A1 receptor subtype; conditions: Table 13, % value; footnote 8: % activity @ 10 μM
[5] = read-out: A1 Yeast IC50, Table 10

Row | Structure (SMILES) | IC50 [1, 5] | A2a % activity [3] | further results
1 | C[C@H](Cc1ccccc1)Nc1ncnc2c1ncn2[C@@H]1O[C@H](CO)[C@@H](O)[C@H]1O (single isomer, unassigned) [R-PIA, (−)-N6-(2-phenylisopropyl)-adenosine] | – | – | affinity (reported) (A1 adenosine receptor): approximately 50 nM
2 | CCC(=O)NCCCNc1nc(-c2ccccc2)nc2[nH]c(C)c(C)c12 [Compound 1012] | – | – | IC50 [1]: 3.46 µM; Ki [2]: 0.234 µM
3 | CNC(=O)NCCCNc1nc(-c2ccccc2)nc2[nH]c(C)c(C)c12 [Compound 1310] | – | 76% | –
4 | Cc1[nH]c2nc(-c3ccccc3)nc(NCCNC(=O)C3(N)CC3)c2c1C [Compound 1313] | – | 65% | A1 % activity [4]: 30%

The next lines start with results.

Row | IC50 [1, 5] | Structure (SMILES) | A2a % activity [3] | further results
5 | > 10 µM | Cc1[nH]c2nc(-c3ccccc3)nc(NCCNS(C)(=O)=O)c2c1C [Compound 1007] | – | –
6 | > 10 µM | Cc1[nH]c2nc(-c3ccccc3)nc(NCCNC(=O)CCN)c2c1C [Compound 1009] | – | –
